Values quoted from earlier work in patent publication US20040235767A1, “Anti-angiogenic and immunotherapeutic compositions for cancer treatment” (priority 2004, published 2004).

System: large tumours
Settings: previously reported

Cc1ccc2c(=O)c3cccc(CC(=O)O)c3oc2c1C [DMXAA, 5,6-dimethylxanthenone-4-acetic acid]
effect on large tumours in combination with B7-1-mediated immunotherapy: eradication of large tumours
